Results from ChEMBL document CHEMBL1156829 (Proc Natl Acad Sci U S A, 2008).

What was measured:
Plasmodium falciparum [1] = assay: NOVARTIS: Inhibition of Plasmodium falciparum 3D7 (drug-susceptible) proliferation in erythrocyte-based infection assay; type: functional, organism-based; settings: Plasmodium falciparum, 3D7
Plasmodium falciparum [2] = assay: NOVARTIS: Inhibition of Plasmodium falciparum W2 (drug-resistant) proliferation in erythrocyte-based infection assay; type: functional, organism-based; settings: Plasmodium falciparum, W2; read-out: EC50
[3] = NOVARTIS: Cytotoxicity against human hepatocellular carcinoma cell line (Huh7); type: toxicity, cell-based, Huh-7; settings: Huh7 cells (hepatocellular carcinoma cell line)

Compound | EC50 (Plasmodium falciparum [1]) [µM] | EC50 (Plasmodium falciparum [2]) [µM] | CC50 [3] [µM]
CCN1CCN(c2cc(C)c3cc(NC(=O)/C=C/c4cc(OC)ccc4OC)ccc3n2)CC1 | 0.397 | > 1.25 | > 10
CC1CCN(C2=C(NC3CCCC3)C(=O)c3ccccc3C2=O)CC1 | 0.00908 | 0.0142 | 24.4
O=C(Nc1cc(C(=O)N2CCC(Cc3ccccc3)CC2)ccc1N1CC2CC(C1)c1cccc(=O)n1C2)c1cccs1 (stereo not given) | 0.0744 | 0.0644 | 49.7
O=C(CC1OC(=O)c2ccccc21)c1ccc(Cl)cc1 (stereo not given) | 0.717 | 0.342 | > 100
N#C/C(=C\c1cn(Cc2ccc(Cl)cc2Cl)c2ccccc12)c1nc2ccccc2[nH]1 | 0.315 | 1.15 | > 10
CCOCCCNC(=O)c1cc(NC(=O)c2ccc(Cl)c([N+](=O)[O-])c2)ccc1N1CCCCC1 | > 1.25 | 0.077 | 1.43
Cc1nc(N(C)c2ccc(C(C)C)cc2)c2c(C)c(C(=O)Nc3cc(C)on3)sc2n1 | 0.248 | 0.236 | > 100
CC[C@H]1CN2CCc3cc(OC)c(OC)cc3[C@@H]2C[C@@H]1C[C@H]1NCCc2cc(OC)c(OC)cc21 [EMETINE] | 0.0101 | 0.0229 | 0.116
CN(C)c1ccc(-c2nc(-c3ccc(-c4[nH]c(-c5ccc(N(C)C)cc5)nc4-c4ccccc4)cc3)c(-c3ccccc3)[nH]2)cc1 | 7.82 | 2.91 | 68.4
CCc1nc2nc(C)cc(Nc3ccc(F)c(Cl)c3)n2n1 | 0.543 | 0.547 | > 100
Cc1ccc2cc3c(N)c4c(C)ccc(C)c4nc3nc2c1 | 0.431 | 0.308 | > 100
OP1(O)=NP(O)(O)=NP(O)(O)=NP(O)(O)=N1 | 0.811 | > 1.25 | > 10
CCCCCN(C(=O)CCc1ccccc1)C(CC)c1nc2ccccc2c(=O)n1-c1ccc(Cl)cc1C (stereo not given) | > 1 | 1.74 | > 0.305
CCCCN(CCCC)C(=O)Cn1ccc(=N)c2ccccc21 | 3.74 | < 0.000151 | > 100
COc1ccccc1CNC(=O)CN1C(=O)c2cccnc2Oc2ccccc21 | > 0.586 | 1.35 | > 10
COC(=O)C1=C(C)N(C)C(C)=C(C(=O)OC)C1c1ccc(C)cc1 | > 0.811 | > 0.567 | > 9.49
COc1ccc(S(=O)(=O)N=C2C=C(Nc3ccccc3)C(=O)c3ccccc32)cc1 | 0.0933 | 0.122 | 12
COc1ccc(C2Nc3ccc(C(C)=O)cc3C3C=CCC32)cc1[N+](=O)[O-] (stereo not given) | 2.15 | 2.57 | > 100
O=C1c2ccccc2C(=O)C12C(c1ccc(Br)cc1)N(c1ccccc1)C1(C(=O)c3ccccc3C1=O)C2c1ccc(Br)cc1 (stereo not given) | 0.51 | > 0.914 | > 10
CN(C)c1cc[n+](Cc2ccccc2)cc1 | 2.42 | > 4.87 | > 100
Cc1ccc(NC(=O)C2C3C=CC4(O3)C2C(=O)N(Cc2cccnc2)C4C(=O)NC2CCCCC2)cc1 (stereo not given) | > 1.64 | 0.682 | > 10
CCCOc1ccc(C=Nc2ccc(S(=O)(=O)Nc3ccccn3)cc2)cc1 | 1.41 | 0.813 | > 10

Compound | EC50 (Plasmodium falciparum [1]) [µM] | EC50 (Plasmodium falciparum [2]) [µM] | CC50 [3] [µM]
COc1ccc(C2CC(=O)C3=C(C2)NC(C)=C(C(=O)OC2CCCCC2)C3c2cccc(C)c2)cc1OC (stereo not given) | 0.837 | 0.281 | > 100
CCOc1ccccc1C=NNc1nc(Nc2ccccc2)nc(Nc2ccccc2)n1 | 2.05 | > 1.25 | > 10
COc1cc(NC(C)CCCN(Cc2ccc(OC)c(OC)c2)C(=O)NC2CCCCC2)c2ncccc2c1 (stereo not given) | 0.676 | 0.337 | 1.3
Cc1cccc(-n2ccnc2SCC(=O)Nc2cc(C(F)(F)F)ccc2Cl)c1 | 0.541 | 1.47 | > 100
CCc1ccc(O)c(-c2cc(C(=O)Nc3cccnc3)[nH]n2)c1 | 0.742 | 0.91 | > 100
CC(C)(C)CC(C)(C)Nc1c(-c2ccccc2OC(=O)c2cccc(Br)c2)nc2ccccn12 | 6.62 | 0.823 | > 100
COc1ccc(C2CC(=O)C3=C(C2)NC(C)=C(C(=O)OC2CCCC2)C3c2ccc(OC)cc2)cc1 (stereo not given) | 3.26 | 0.649 | > 100
CN1CCC(N[C@@H]2C[C@@H](C(=O)N3CCN(c4cccc(C(F)(F)F)c4)CC3)N(Cc3ccccc3Cl)C2)CC1 | > 1.25 | > 1.17 | > 10
CCn1c2ccccc2c2cc(C=NNC(=O)c3nnn(-c4nonc4N)c3-c3ccccc3)ccc21 | > 1.25 | > 0.76 | > 10
CN(C)S(=O)(=O)c1ccc(C(=O)Nc2nc3c(ccc4ccccc43)s2)cc1 | > 9.47 | 1.97 | > 100
Cn1nc(-c2ccccc2)c2c(C(=O)C(F)(F)F)cc(C(=O)C(F)(F)F)c-2c1-c1ccccc1 | 8.23 | 2.33 | > 100
Nc1c(C(=O)Nc2ccc(F)cc2)sc2nc3c(c(-c4cccs4)c12)CCCC3 | 1.13 | 1.71 | > 100
CC(C(=O)NCCCN)N(Cc1ccccc1)S(C)(=O)=O (stereo not given) | > 1.25 | 0.0162 | > 10
CN(C)c1ccc(/C=C/C(=O)NC(=O)c2ccccc2O)cc1 | 0.0844 | 0.0752 | > 10
COc1ccc(C2C(C(=O)Nc3cc(Cl)c(OC)cc3OC)c3ccccc3C(=O)N2C)cc1 (stereo not given) | 0.378 | 0.333 | > 100
COc1cccc(N2CCN(CCNCCOc3ccccc3)[C@@H](Cc3ccccc3)C2)c1 | 0.703 | 0.383 | > 7.31
CCOC(=O)C1=C(C)NC2=C(C(=O)CC(c3ccc(OC)c(OC)c3)C2)C1c1cccc(Br)c1 (stereo not given) | 0.171 | 0.0659 | > 100
Cc1c(/C=C2\SC(=Nc3ccccc3F)N(C3CCCCC3)C2=O)c2ccccc2n1CC(N)=O | 0.301 | 0.961 | > 100
O=C(NCCc1ccccc1)c1cnc(NCCCN2CCCC2)nc1Nc1ccccc1 | 0.541 | > 1.25 | > 10
CCCCCC1CCCc2c1[nH]c1cc(Cl)ccc1c2=O (stereo not given) | 0.475 | 0.302 | > 100
N#Cc1c2c(c(NCc3ccccn3)n3c1nc1ccccc13)CCCC2 | 0.223 | 0.522 | > 100
CN1C(=O)N(C)C(NNC(N)=S)C1NNC(N)=S (stereo not given) | 0.00892 | 0.00621 | > 100

Compound | EC50 (Plasmodium falciparum [1]) [µM] | EC50 (Plasmodium falciparum [2]) [µM] | CC50 [3] [µM]
CN(C)c1cc(NC(=O)Nc2cccc(Cl)c2)c2ccccc2n1 | 0.0765 | 0.292 | > 10
COc1ccc(C=NNc2nc(Nc3ccc([N+](=O)[O-])cc3)nc(N3CCN(C)CC3)n2)cc1OC | 1.82 | 0.444 | 15.2
CC[C@@]1(O)C[C@H](O[C@@H]2CC(N(C)C)[C@@H](O[C@@H]3C[C@@H](O)[C@@H](O[C@@H]4CCC(=O)[C@@H](C)O4)C(C)O3)[C@@H](C)O2)c2c(cc3c(c2O)C(=O)c2c(O)ccc(O)c2C3=O)[C@H]1C(=O)OC (stereo not given in full) | 0.0877 | 0.0792 | 3.37
CCCc1cc(O)c2c3c(c(=O)oc2c1)CN(C)CC3 | 0.554 | 0.294 | > 100
CCOC(=O)c1c(CNCCN(CC)CC)n(C)c2cc(Br)c(O)cc12 | 0.515 | 0.185 | > 100
CCC1CCCCN1CCCNC(=O)c1cn(CC)c(=O)c2cc(OC)c(OC)cc12 (stereo not given) | 0.449 | 0.505 | > 100
O=C(NNc1ccccc1F)c1c(F)cccc1Cl | > 1.25 | < 0.0316 | > 10
COc1ccccc1/C=C/CN1CCN(c2ccccn2)CC1 | > 1.63 | > 1.15 | > 10
CN(C)c1ccc(C=Cc2nc(=O)c3ccccc3o2)cc1 | 0.0959 | 0.0961 | > 100
c1ccc(-c2nn(-c3ccccc3)[n+](-c3ccccc3)n2)cc1 | 0.296 | 0.207 | > 100
COCCN1C(=O)c2ccccc2C(C(=O)Nc2cccc(C(F)(F)F)c2)C1c1cccs1 (stereo not given) | 3.83 | 2.65 | > 100
COc1ccc(-n2nc(C(=O)NCC(=O)NCCCN3CCOCC3)c3ccccc3c2=O)cc1Cl | 1.26 | > 1.25 | > 10
COc1cccc(CNC(=O)[C@@H]2CNC[C@H]2c2ccc(C(F)(F)F)cc2)c1 | 0.108 | 0.0775 | 23.8
COc1ccc(C2CC(=O)C3=C(C2)NC(C)=C(C(=O)OC(C)C)C3c2ccc(F)cc2)cc1OC (stereo not given) | 0.00945 | 0.0131 | 22.8
COc1ccc(-c2ccc(C=C3C(=O)NC(=S)NC3=O)o2)cc1Cl | > 1.04 | > 1.25 | > 10
COc1ccccc1N1CCN(Cc2cc(C)c(C)cc2O)CC1 | 0.383 | 0.0805 | 58
O=C(/C=C/c1c[nH]cn1)N1CCC(n2c(CC3CCCC3)nc3cccnc32)CC1 | > 1.67 | 0.0287 | > 10
COc1ccc(N(CCCNC(=O)CCl)C(=O)Nc2cccc(Cl)c2)cc1 | > 1.6 | 1.15 | > 10
COc1ccc(CC(=O)Nc2sc3c(c2C(=O)Nc2cccc4ccccc24)CCCC3)cc1 | > 1.25 | 1.13 | > 10
CCOc1ccc(-c2cn3c([n+]2Cc2ccccc2)SCCC3)cc1 | 0.648 | 1.09 | > 10
O=C(NCc1ccco1)C1CCCN(c2cccc3c2C(=O)N(CCc2cccc(F)c2)C3=O)C1 (stereo not given) | > 1.4 | > 0.611 | > 10
